Refractive index and viscosity data for 2 compounds are collected here from the NIST ThermoML archive (doi:10.1021/acs.jced.9b00171).

Usually refractive index stands for the speed of light in vacuum divided by its phase velocity in the sample. Usually viscosity stands for the resistance of a fluid to flow.

Molecules are shown by their SMILES. ± gives the expanded uncertainty stated by the source.

The nature of data set [1]: refractive index (Na D-line) (dimensionless). As to conditions: 101.3 kPa, Liquid, Standard Abbe refractometry.
The conditions of data set [2]: 101.3 kPa, Liquid, Oscillating disk viscometry.

Regarding `CNCCO` [2-(methylamino)ethanol], the refractive index in data set [1] (293.15 K) turned out to be 1.4386 ± 0.0022; in data set [1] (298.15 K), 1.437 ± 0.0022; in data set [1] (303.15 K), 1.4352 ± 0.0022; in data set [1] (308.15 K) it was 1.4331 ± 0.0022; in data set [1] (313.15 K) it was 1.431 ± 0.0022; in data set [1] (318.15 K) it was 1.4288 ± 0.0022. Also, the refractive index in data set [1] (323.15 K) is listed as 1.4265 ± 0.0023; in data set [1] (328.15 K) it was 1.4242 ± 0.0023; in data set [1] (333.15 K), 1.4218 ± 0.0023. Also, the viscosity in data set [2] (293.15 K) stood at 13.12 ± 2.9 mPa·s; in data set [2] (298.15 K) it was 10.28 ± 2.3 mPa·s; in data set [2] (303.15 K), 8.42 ± 1.8 mPa·s; in data set [2] (308.15 K), 6.78 ± 1.5 mPa·s; in data set [2] (313.15 K), 5.54 ± 1.2 mPa·s; in data set [2] (318.15 K), 4.61 ± 0.99 mPa·s. In addition, the results for the viscosity in data set [2] (323.15 K), in data set [2] (328.15 K) and in data set [2] (333.15 K) were 3.82 ± 0.82 mPa·s, 3.13 ± 0.69 mPa·s and 2.42 ± 0.56 mPa·s, respectively.

Consider `NCCNCCO` [N-(2-aminoethyl)ethanolamine], for which the refractive index in data set [1] (293.15 K) amounted to 1.4856 ± 0.0021; in data set [1] (298.15 K) it was 1.4842 ± 0.0021; in data set [1] (303.15 K), 1.4827 ± 0.0022; in data set [1] (308.15 K) it was 1.481 ± 0.0022; in data set [1] (313.15 K), 1.4792 ± 0.0022; in data set [1] (318.15 K), 1.4772 ± 0.0022. Further, the refractive index in data set [1] (323.15 K) came to 1.475 ± 0.002; in data set [1] (328.15 K), 1.4727 ± 0.0023; in data set [1] (333.15 K), 1.4702 ± 0.0023. Also, the viscosity in data set [2] (293.15 K) turned out to be 153.62 ± 41 mPa·s; in data set [2] (298.15 K) it was 99.27 ± 27 mPa·s; in data set [2] (303.15 K) it was 71.31 ± 17 mPa·s; in data set [2] (308.15 K), 52.94 ± 13 mPa·s; in data set [2] (313.15 K) it was 37.67 ± 9.1 mPa·s; in data set [2] (318.15 K) it was 28.23 ± 6.5 mPa·s. Further, the viscosity in data set [2] (323.15 K) amounted to 21.55 ± 4.9 mPa·s; in data set [2] (328.15 K), 16.43 ± 3.8 mPa·s; in data set [2] (333.15 K) it was 12.74 ± 3 mPa·s.
